These results are taken from paper PMC1931592 (BMC Pharmacology, 2007).

What all share (format): biochemical
Assay [1] concerns the target T1, recombinant human caspase-7 (Homo sapiens, UniProt P55210).
T1 construct: each active recombinant human caspase was incubated; purchased Calbiochem
T1 sequence (P55210 24-198 limits assumed): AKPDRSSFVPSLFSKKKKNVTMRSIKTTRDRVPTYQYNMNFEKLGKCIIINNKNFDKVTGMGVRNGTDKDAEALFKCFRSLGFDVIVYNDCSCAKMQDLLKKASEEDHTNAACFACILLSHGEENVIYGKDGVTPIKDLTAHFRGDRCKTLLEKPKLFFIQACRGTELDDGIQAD
T1 sequence (P55210 207-303 limits assumed): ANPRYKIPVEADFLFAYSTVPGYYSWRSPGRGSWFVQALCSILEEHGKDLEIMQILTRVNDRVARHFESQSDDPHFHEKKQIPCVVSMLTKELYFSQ
Briefly: Ac-DNLD-MCA and Ac-DEVD-MCA cleavage assay, caspase-7. The note with it: 200 μM substrate, 37°C, MCA liberation. As to the method:
(§1) To characterize the potency and selectivity of Ac-DNLD-MCA for caspases-3, -7, -8, and -9, in vitro caspase activity assays were performed. One unit (the amount of enzyme that cleaves 1 nmol of substrate per hr) of each active recombinant human caspase was added to a reaction mixture containing 200 μM Ac-DNLD-MCA or Ac-DEVD-MCA in assay buffer (100 mM NaCl, 50 mM HEPES, 10 mM DTT, 1 mM EDTA, 10% glycerol, and 0.1% CHAPS, pH 7.4). Then, the liberation of MCA was monitored continuously at 37°C using a 96-well plate reader Wallace 1420 ARVOsx (PerkinElmer) with an excitation wavelength of 390 nm and an emission wavelength of 460 nm.

In assay [2] the target is T2, recombinant human caspase-8 (Homo sapiens, UniProt Q14790).
T2 construct: each active recombinant human caspase was incubated; purchased Calbiochem
T2 sequence (Q14790 217-374 limits assumed): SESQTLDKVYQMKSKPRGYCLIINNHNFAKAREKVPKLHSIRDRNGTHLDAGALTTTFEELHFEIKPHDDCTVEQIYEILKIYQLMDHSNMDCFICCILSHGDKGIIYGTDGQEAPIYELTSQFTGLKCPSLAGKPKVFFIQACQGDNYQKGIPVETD
T2 sequence (Q14790 385-479 limits assumed): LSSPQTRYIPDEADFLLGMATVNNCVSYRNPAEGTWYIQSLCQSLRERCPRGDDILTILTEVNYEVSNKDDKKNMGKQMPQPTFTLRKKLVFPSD
Briefly: Ac-DNLD-MCA and Ac-DEVD-MCA cleavage assay, caspase-8. To be noted: 200 μM substrate, 37°C, MCA liberation. As to the method: as §1

The target in assay [3] is T3, recombinant human caspase-9 (Homo sapiens, UniProt P55211).
T3 sequence (P55211 140-315 limits assumed): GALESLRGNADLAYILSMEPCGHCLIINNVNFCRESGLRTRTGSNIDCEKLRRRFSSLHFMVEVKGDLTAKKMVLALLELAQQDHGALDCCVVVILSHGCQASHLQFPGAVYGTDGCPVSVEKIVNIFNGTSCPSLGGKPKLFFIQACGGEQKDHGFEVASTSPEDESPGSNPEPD
T3 sequence (P55211 331-416 limits assumed): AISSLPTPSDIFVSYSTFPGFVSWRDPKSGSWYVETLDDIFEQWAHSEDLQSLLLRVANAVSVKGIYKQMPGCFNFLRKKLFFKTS
The assay can be described thus: Ac-DNLD-MCA and Ac-DEVD-MCA cleavage assay, caspase-9. The note with it: 200 μM substrate, 37°C, MCA liberation. The procedure:
as §1

Assay [4] has as its target T4, substituted (S209A) caspase-3 (Homo sapiens, UniProt P42574, S209A).
T4 construct: Active caspase-3 was generated by coexpression of HA-p17 and HA-p12 (wild type or mutant) subunits in vitro; (position 176–208, antisense); made in house
T4 sequence (P42574 29-175 limits assumed): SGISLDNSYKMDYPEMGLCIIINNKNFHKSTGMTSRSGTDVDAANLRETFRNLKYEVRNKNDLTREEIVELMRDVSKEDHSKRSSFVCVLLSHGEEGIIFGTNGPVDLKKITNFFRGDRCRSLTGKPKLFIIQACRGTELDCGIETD
T4 sequence (P42574 176-277 S209A limits assumed): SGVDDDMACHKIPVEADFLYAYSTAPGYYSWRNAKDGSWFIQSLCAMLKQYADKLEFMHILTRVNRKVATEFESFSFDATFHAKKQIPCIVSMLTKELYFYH
The assay can be described thus: Cleavage assay with substituted (S209A) caspase-3 versus wild-type. To be noted: S209A versus wild-type caspase-3. The procedure:
as §1
Site-directed mutagenesis of p12 subunit (S209A) was introduced using PCR. The following primers were used for the preparation of the mutant, 5'-[…] TGACATG-3' (position 176–208, sense) and 5'-[…]-3' (position 176–208, antisense); 5'-[…]-3' (position 209–277, sense) and 5'-[…]-3' (position 209–277, antisense). The mutated site (Ser209→Ala) was shown in bold letter. After each fragments were amplified and ligated, they were tagged with HA and subcloned into pcDNA3 B (Invitrogen) at the EcoRV site. After comfirming the sequences, the inserts were excited by XhoI digestion and recloned into the XhoI site of pURE4 (Post Genome Institute Co., Ltd.) […]

Entries after “also recorded” stand apart in the source; their conditions may differ.

For Ac-DEVD-MCA, the “cleavage of fluorometric substrate by caspase-7 (in words)” value in assay [1] is listed as “able to cleave”. In assay [2], the “cleavage of fluorometric substrate by caspase-8 (in words)” value is “able to cleave”. In addition, in assay [3], the “cleavage of fluorometric substrate by caspase-9 (in words)” value is reported as “able to cleave”. In addition, the “cleavage of substrate by S209A caspase-3 compared with wild-type (in words)” value in assay [4] is on record as “virtually no effect; also recorded: as efficient as the wild-type”.
